Reference: publication PMC6475490 (Psychopharmacology, 2018)
pEC50: −log10 of the molar value. Entries after “also recorded” stand apart in the source; their conditions may differ.

Assays:
[1] = tested on: DAT, SERT, and NET; format: biochemical, rat; details: from DAT, SERT EC50 and NET screening data
[2] = tested on: rats; details: ref Glennon et al. 1987; cited from earlier work
[3] = tested on: baboons; details: ref Kaminski and Griffiths 1994; cited from earlier work
[4] = biological target: DAT (Rattus norvegicus, UniProt P23977); assay: DAT-mediated [3H]DA release assay in rat brain synaptosomes; format: biochemical
[5] = biological target: NET (Rattus norvegicus, UniProt Q63380); assay: NET-mediated [3H]MPP+ release screen in rat brain synaptosomes; format: biochemical; details: based on % release at 10 µM screening data
[6] = biological target: SERT (Rattus norvegicus, UniProt P31652); assay: SERT-mediated [3H]5-HT release assay in rat brain synaptosomes; format: biochemical; details: relative to methcathinone 1
[7] = tested on: rats; details: ref Gatch et al. 2015; cited from earlier work
[8] = tested on: transporters; details: CF3 analogs; ref Cozzi et al. 2013; cited from earlier work

Chain of DAT (P23977 whole entry): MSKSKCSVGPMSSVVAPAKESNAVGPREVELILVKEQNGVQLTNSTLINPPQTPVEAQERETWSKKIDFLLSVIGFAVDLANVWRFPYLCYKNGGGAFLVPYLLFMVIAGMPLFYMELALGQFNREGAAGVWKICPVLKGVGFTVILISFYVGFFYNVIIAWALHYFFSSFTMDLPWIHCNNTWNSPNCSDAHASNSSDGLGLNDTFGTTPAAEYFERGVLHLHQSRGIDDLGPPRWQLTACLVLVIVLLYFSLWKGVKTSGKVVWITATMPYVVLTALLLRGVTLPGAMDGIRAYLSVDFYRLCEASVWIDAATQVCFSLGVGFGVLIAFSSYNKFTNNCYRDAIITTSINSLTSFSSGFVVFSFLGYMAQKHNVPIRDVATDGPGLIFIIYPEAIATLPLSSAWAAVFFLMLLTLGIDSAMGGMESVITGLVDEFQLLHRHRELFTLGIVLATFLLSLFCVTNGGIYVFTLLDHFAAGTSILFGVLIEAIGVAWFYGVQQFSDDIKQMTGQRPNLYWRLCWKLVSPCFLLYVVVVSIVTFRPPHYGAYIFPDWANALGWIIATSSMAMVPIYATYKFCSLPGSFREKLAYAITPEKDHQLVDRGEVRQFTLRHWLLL
Chain of NET (Q63380 1-617): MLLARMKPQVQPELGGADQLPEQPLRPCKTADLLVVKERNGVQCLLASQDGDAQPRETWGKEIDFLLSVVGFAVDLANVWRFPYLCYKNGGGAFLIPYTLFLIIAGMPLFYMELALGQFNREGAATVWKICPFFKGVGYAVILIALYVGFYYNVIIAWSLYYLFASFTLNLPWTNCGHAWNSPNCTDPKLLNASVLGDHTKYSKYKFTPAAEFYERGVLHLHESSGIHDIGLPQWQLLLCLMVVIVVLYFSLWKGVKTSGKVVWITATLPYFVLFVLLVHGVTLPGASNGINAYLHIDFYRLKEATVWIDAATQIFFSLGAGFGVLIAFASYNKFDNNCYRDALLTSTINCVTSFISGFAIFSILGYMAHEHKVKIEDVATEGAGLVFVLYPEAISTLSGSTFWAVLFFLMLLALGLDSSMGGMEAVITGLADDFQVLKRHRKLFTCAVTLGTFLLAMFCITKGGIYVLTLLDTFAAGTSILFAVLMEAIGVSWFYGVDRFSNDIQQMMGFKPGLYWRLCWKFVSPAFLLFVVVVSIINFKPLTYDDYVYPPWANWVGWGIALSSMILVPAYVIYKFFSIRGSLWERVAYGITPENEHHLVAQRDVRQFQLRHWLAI
Chain of SERT (P31652 whole entry): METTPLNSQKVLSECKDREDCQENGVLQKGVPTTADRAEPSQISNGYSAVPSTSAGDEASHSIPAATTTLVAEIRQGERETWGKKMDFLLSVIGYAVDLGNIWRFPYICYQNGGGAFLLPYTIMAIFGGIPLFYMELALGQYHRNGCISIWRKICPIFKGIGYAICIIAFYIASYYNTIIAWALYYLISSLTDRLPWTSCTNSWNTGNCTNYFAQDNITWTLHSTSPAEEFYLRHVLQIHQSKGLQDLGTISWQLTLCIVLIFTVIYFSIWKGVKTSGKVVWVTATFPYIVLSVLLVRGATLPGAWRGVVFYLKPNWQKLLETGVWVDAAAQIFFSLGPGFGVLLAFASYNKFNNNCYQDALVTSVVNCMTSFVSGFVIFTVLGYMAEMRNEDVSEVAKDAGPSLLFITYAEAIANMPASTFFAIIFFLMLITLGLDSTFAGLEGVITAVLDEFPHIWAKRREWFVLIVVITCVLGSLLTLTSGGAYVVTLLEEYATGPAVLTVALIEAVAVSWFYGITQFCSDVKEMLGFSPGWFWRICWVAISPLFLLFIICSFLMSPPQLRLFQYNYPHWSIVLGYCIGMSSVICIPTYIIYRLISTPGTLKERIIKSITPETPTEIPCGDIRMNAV

Compound	transporter selectivity profile in words [1]	fold less potent at DA release (DAT) compared to 1 ([4]; relative to methcathinone 1)	fold more potent at 5-HT release (SERT) compared to 1 [6]	further results
CNC(C)C(=O)c1ccccc1 (centres unmarked) [Compound 1, methcathinone]	DAT selective			substitution for amphetamine in drug discrimination [2]: substitute for amphetamine; self-administration [3]: dose-dependently maintain self-administration
Cl.NCC(=O)c1ccccc1 [Compound 6, phenacylamine, reference compound]	DAT selective	4.2 fold		
CNC(C)C(=O)c1ccccc1F (centres unmarked) [Compound 7]	DAT selective			
CNC(C)C(=O)c1ccccc1C(F)(F)F (centres unmarked) [Compound 8]	selective NET releaser; also recorded: selective NE releasers			NET / NE release activity in words [5]: appears active as a NE releaser
CNC(C)C(=O)c1ccccc1OC(F)(F)F (centres unmarked) [Compound 9]				NET / NE release activity in words [5]: weak
CNC(C)C(=O)c1ccccc1C (centres unmarked) [Compound 10]	DAT selective	2 fold	12 fold	
CNC(C)C(=O)c1cccc(Br)c1 (centres unmarked) [Compound 11]			31 fold	fold more potent at DA release (DAT) compared to 1 ([4]; relative to methcathinone 1): ~2 fold
CNC(C)C(=O)c1cccc(F)c1 (centres unmarked) [Compound 13, 3-fluoromethcathinone]	highly potent, DAT selective compound		2.9 fold	locomotor stimulation [7]: induce locomotor stimulation
CNC(C)C(=O)c1cccc(C(F)(F)F)c1 (centres unmarked) [Compound 14]	SERT/NET selective releasers; also recorded: selective 5-HT releasers	26 fold	14 fold	
CNC(C)C(=O)c1cccc(C)c1 (centres unmarked) [Compound 16]			14.6 fold	
CNC(C)C(=O)c1ccc(Br)cc1 (centres unmarked) [Compound 19]			100 fold	
CNC(C)C(=O)c1ccc(F)cc1 (centres unmarked) [Compound 21]		2.4 fold	2.9 fold	
CNC(C)C(=O)c1ccc(C(F)(F)F)cc1 (centres unmarked) [Compound 22]	most serotonergic; also recorded: low DAT selectivity		15 fold	pEC50 ([4]; read-out: DA release EC50, bound stated): < 5.40; relative selectivity (DAT selectivity) [8]: < 0.04
CNC(C)C(=O)c1ccc(C)cc1 (centres unmarked) [Compound 24, mephedrone, reference compound]			36 fold	
CNC(C)C(=O)c1cccc2ccccc12 (centres unmarked) [Compound 26, 1-naphthylmethcathinone]			198 fold	
CNC(C)C(=O)c1c[nH]c2ccccc12 (centres unmarked) [Compound 28, 3-indoylmethcathinone]		~2 fold	103 fold	NET / NE release activity in words [5]: much weaker than its DAT release potency
CNC(C)C(=O)c1ccc(C)c(Cl)c1 (centres unmarked) [Compound 31]		2.5 fold	102 fold	
